US20230381155A1, “TREATMENT OF BREAST CANCER USING COMBINATION THERAPIES COMPRISING GDC-9545 AND GDC-0077” (Genentech, Inc., priority 2021, published 2023)
“Also recorded” adds a separate entry of the source. One block for each compound: values may come before it.

Key:
[1] = human steady-state total drug exposure, GDC-9545 versus fulvestrant; format: in vivo; conditions: GDC-9545 30 mg QD versus fulvestrant 500 mg IM monthly
[2] = format: in vitro ADME
[3] = system: ER, wild-type and ESR1-mutant contexts; assay: in vitro cell and biochemical assays, potency versus fulvestrant
ER = target: T1, ER (Homo sapiens, UniProt P03372); assay: competition with estrogens for binding to the ER
T1 sequence (P03372 1-595): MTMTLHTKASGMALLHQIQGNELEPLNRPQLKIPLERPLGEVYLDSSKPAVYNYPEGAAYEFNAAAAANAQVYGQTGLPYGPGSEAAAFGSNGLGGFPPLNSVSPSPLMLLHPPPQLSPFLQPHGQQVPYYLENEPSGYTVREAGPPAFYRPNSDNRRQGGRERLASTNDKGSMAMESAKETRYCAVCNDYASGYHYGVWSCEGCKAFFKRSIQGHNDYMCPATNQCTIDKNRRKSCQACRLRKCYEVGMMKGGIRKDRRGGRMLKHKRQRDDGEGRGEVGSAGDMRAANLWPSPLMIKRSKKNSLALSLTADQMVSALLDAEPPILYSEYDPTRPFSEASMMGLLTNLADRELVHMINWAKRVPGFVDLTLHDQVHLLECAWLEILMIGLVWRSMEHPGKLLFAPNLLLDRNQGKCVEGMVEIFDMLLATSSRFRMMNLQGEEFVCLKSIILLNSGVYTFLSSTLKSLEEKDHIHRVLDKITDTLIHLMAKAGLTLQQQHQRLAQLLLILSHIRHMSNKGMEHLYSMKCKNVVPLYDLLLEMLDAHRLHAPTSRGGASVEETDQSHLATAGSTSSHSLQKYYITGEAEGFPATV

oral bioavailability = conditions: in vivo
[4] = system: ER+ breast cancer models of ESR1-wild type and ESR1-mutation-bearing disease; assay: nonclinical activity in ER+ breast cancer models
[5] = system: ESR1 wildtype MCF-7 (PIK3CA.E545K) cells; assay: CyQUANT relative viability, MCF-7 wildtype ESR1; format: cell-based; conditions: 300 nM GDC-9545, 80 nM GDC-0077, alone or combined; 0.1 nmol/L E2; 6 to 8 days
Procedure: (§1) Cells were treated as shown for 6 to 8 days, and relative viability was assessed. *p<0.0001, parametric t-test.
ESR1 wildtype MCF-7 (PIK3CA.E545K) and T-47D (PIK3CA.H1047R) cells, and engineered ESR1 mutant cells [MCF-7.ER.Y537S, T-47D.ER.D538G] were grown under standard cell culture conditions in RPMI media with 10% fetal bovine serum. One day prior to the addition of drugs, cells were seeded in 384-well plates in phenol red-free RPMI with 10% charcoal-stripped fetal bovine serum in order to deprive the cells of hormones. Single agent 300 nM GDC-9545, 80 nM GDC-0077, 125 nM palbociclib or a combination thereof, were tested in quadruplicate in the presence of 0.1 nmol/L estradiol (E2) during a 6-day or 8-day incubation period. The absence of E2 in the media (−E2) serves to mimic treatment with an Aromatase Inhibitor (AI). The combination of E2 withdrawal plus palbociclib—reflecting the current standard of care for metastatic breast cancer—was included. […] The relative number of viable cells at the 6/8-day timepoint was determined by CyQUANT (ThermoFisher, C7026).

MCF-7.ER.Y537S cells = assay: CyQUANT relative viability, MCF-7.ER.Y537S; format: cell-based; conditions: 300 nM GDC-9545, 80 nM GDC-0077, alone or combined; 0.1 nmol/L E2; 6 to 8 days
Procedure: as §1
One day prior to the addition of drugs, cells were seeded in 384-well plates in phenol red-free RPMI with 10% charcoal-stripped fetal bovine serum in order to deprive the cells of hormones. Single agent 300 nM GDC-9545, 80 nM GDC-0077, 125 nM palbociclib or a combination thereof, were tested in quadruplicate in the presence of 0.1 nmol/L estradiol (E2) during a 6-day or 8-day incubation period. The absence of E2 in the media (−E2) serves to mimic treatment with an Aromatase Inhibitor (AI). The combination of E2 withdrawal plus palbociclib—reflecting the current standard of care for metastatic breast cancer—was included. Drug concentrations of GDC-0077 and palbociclib were chosen to be clinically relevant, based on human exposures. 300 nM GDC-9545 is a saturating concentration that is lower than the human dose equivalent of 30 mg. The relative number of viable cells at the 6/8-day timepoint was determined by CyQUANT (ThermoFisher, C7026).

[6] = system: ESR1 wildtype T-47D (PIK3CA.H1047R) cells; assay: CyQUANT relative viability, T-47D wildtype ESR1; format: cell-based; conditions: 300 nM GDC-9545, 80 nM GDC-0077, alone or combined; 0.1 nmol/L E2; 6 to 8 days
Procedure: Combination of GDC-9545 and GDC-007 was investigated and compared to efficacy of each single agent and to an AI+palbociclib control. ESR1 wildtype MCF-7 (PIK3CA.E545K) and T-47D (PIK3CA.H1047R) cells, and engineered ESR1 mutant cells [MCF-7.ER.Y537S, T-47D.ER.D538G] were grown under standard cell culture conditions in RPMI media with 10% fetal bovine serum. One day prior to the addition of drugs, cells were seeded in 384-well plates in phenol red-free RPMI with 10% charcoal-stripped fetal bovine serum in order to deprive the cells of hormones. Single agent 300 nM GDC-9545, 80 nM GDC-0077, 125 nM palbociclib or a combination thereof, were tested in quadruplicate in the presence of 0.1 nmol/L estradiol (E2) during a 6-day or 8-day incubation period. The absence of E2 in the media (−E2) serves to mimic treatment with an Aromatase Inhibitor (AI). The combination of E2 withdrawal plus palbociclib—reflecting the current standard of care for metastatic breast cancer—was included. Drug concentrations of GDC-0077 and palbociclib were chosen to be clinically relevant, based on human exposures. […] The relative number of viable cells at the 6/8-day timepoint was determined by CyQUANT (ThermoFisher, C7026).

T-47D.ER.D538G cells = assay: CyQUANT relative viability, T-47D.ER.D538G; format: cell-based; conditions: 300 nM GDC-9545, 80 nM GDC-0077, alone or combined; 0.1 nmol/L E2; 6 to 8 days
Procedure: as §1

[7] = target: Class I alpha isoform of phosphatidylinositol 3-kinase (PI3K-α) (Homo sapiens, UniProt P42336); assay: biochemical inhibition of PI3K-α
Sequence of Class I alpha isoform of phosphatidylinositol 3-kinase (PI3K-α) (P42336 whole entry, canonical isoform): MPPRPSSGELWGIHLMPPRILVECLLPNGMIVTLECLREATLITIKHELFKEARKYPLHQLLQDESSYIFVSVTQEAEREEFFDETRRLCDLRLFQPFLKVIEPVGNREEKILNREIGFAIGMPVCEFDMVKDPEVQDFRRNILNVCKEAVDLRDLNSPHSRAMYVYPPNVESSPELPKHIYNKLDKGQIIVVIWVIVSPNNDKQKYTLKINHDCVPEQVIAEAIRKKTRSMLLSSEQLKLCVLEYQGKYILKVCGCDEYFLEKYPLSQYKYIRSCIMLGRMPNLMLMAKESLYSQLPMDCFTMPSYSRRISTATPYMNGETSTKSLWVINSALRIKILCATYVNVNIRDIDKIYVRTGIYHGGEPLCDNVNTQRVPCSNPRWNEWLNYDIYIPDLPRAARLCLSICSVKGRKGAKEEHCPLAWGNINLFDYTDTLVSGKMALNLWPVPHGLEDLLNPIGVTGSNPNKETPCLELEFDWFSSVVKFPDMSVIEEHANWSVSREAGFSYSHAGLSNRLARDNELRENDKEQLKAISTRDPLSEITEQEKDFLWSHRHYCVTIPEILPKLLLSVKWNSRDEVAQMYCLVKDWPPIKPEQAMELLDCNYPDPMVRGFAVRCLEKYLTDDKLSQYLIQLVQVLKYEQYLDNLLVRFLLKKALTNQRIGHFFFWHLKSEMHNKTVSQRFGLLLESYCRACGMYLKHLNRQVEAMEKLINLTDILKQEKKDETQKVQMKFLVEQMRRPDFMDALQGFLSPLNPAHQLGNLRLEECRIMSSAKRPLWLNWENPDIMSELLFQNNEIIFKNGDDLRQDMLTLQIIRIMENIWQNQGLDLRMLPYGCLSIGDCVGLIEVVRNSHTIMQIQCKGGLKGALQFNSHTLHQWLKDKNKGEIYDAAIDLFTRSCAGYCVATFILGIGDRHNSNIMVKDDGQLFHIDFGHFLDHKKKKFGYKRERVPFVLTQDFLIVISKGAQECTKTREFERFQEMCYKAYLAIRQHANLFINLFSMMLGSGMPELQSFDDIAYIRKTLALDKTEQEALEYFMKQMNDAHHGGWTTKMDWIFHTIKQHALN
Sequence of Class I alpha isoform of phosphatidylinositol 3-kinase (PI3K-α) (P27986 whole entry partner, canonical isoform): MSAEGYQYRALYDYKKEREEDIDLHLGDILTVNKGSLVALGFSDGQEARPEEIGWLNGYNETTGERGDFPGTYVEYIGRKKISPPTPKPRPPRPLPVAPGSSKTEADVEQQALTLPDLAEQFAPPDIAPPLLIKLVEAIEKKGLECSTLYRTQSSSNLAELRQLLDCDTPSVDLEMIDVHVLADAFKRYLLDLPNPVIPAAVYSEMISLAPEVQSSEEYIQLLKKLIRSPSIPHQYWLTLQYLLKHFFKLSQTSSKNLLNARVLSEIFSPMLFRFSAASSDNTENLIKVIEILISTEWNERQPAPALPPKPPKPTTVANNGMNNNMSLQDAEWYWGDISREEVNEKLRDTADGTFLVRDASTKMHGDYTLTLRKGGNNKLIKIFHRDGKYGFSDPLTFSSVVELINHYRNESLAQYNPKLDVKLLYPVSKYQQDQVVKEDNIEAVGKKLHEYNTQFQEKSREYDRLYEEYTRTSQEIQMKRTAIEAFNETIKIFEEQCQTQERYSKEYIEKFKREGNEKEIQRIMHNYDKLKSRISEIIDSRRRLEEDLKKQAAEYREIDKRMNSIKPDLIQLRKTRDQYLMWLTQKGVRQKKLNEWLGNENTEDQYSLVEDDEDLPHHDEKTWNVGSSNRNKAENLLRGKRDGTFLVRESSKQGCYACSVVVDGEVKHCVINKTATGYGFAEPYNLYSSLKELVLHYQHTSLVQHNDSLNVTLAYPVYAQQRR

[8] = system: other Class I PI3Ks, including the β, δ, and γ isoforms; assay: biochemical inhibition of other Class I PI3Ks; conditions: δ, and γ isoforms versus PI3K-α
[9] = system: tumor cells bearing mutant p110a; assay: potency in tumor cells, mutant versus wild-type p110a; format: cell-based
[10] = system: PIK3CA-mutant breast cancer cell lines; assay: proliferation and apoptosis in PIK3CA-mutant breast cancer cell lines; format: cell-based; conditions: nonclinical studies
mutant p110a = assay: degradation of mutant p110a; format: cell-based; conditions: nonclinical studies
Source text: Without being bound by any particular theory, GDC-0077 appears to exert its activity by binding to the adenosine binding site of p110a, thereby inhibiting the phosphorylation of membrane-bound phosphatidylinositol 4,5-bisphosphate (PIP2) to phosphatidylinositol 3,4,5-trisphophate (PIP3). This inhibition decreases downstream activation of pathway effectors including Akt and S6RP, resulting in decreased cellular proliferation, metabolism, and angiogenesis.

[11] = system: human breast cancer xenograft models harboring PIK3CA mutations; assay: tumor growth in breast cancer xenograft models; format: in vivo; conditions: nonclinical studies
pAkt, pPRAS40, pS6RP = assay: downstream PI3K pathway markers; conditions: nonclinical studies
[12] = system: patients with measurable disease; assay: clinical study of single agent GDC-0077, RECIST v1.1 response; format: in vivo, human; conditions: among 20 patients
Source text: In one study using single agent administration of GDC-0077, among 20 patients with measurable disease treated with a 6-mg, 9-mg, or 12-mg QD starting dose of GDC-0077 as a single agent, 5 patients (25%) achieved PRs, while 9 patients (45%) achieved clinical benefit (defined as the percentage of patients achieving confirmed Response Evaluation Criteria in Solid Tumors, Version 1.1 [RECIST v1.1]-defined CR, PR, and/or SD [non-complete response/non-progressive disease for patients with non-measurable disease at baseline] for 24 weeks). Further, 14 of the 20 patients were enrolled at the 6-mg or 9-mg QD starting dose, and 3 patients had received prior treatment with a CDK4/6i.

[13] = system: ER+ breast cancer xenograft models; assay: xenograft models, efficacy versus fulvestrant; format: in vivo; conditions: fulvestrant dosed according to a clinically relevant dosing scheme
frontline patients = conditions: NCT01602380; cited from earlier work
[14] = 6-mg, 9-mg, or 12-mg QD starting dose, single agent
[15] = CR, PR and/or SD for 24 weeks, RECIST v1.1

human steady-state total drug exposure relative to fulvestrant [1]: approximately 10 fold | plasma protein binding compared with fulvestrant [2]: lower plasma protein binding | potency of competition with estrogens for binding to the ER (ER): low nanomolar potency | oral bioavailability (oral bioavailability): orally bioavailable
SMILES: C[C@@H]1Cc2c([nH]c3ccccc23)[C@@H](c2c(F)cc(NC3CN(CCCF)C3)cc2F)N1CC(F)(F)CO [GDC-9545]
potency relative to fulvestrant [3]: up to 10 times | nonclinical activity [4]: robust nonclinical activity | anti-proliferative effect / relative viability [5]: greater impact on cell viability versus estrogen withdrawal | anti-proliferative effect / relative viability (MCF-7.ER.Y537S cells): reduced cell numbers relative to the control condition | anti-proliferative effect / relative viability [6]: reduced cell proliferation relative to control treated cells; also recorded: did not achieve the same anti-proliferative activity as the combination of the agents | anti-proliferative effect / relative viability (T-47D.ER.D538G cells): considerably more impactful than E2 withdrawal

SMILES: C[C@H](Nc1ccc2c(c1)OCCn1cc(N3C(=O)OC[C@H]3C(F)F)nc1-2)C(N)=O [GDC-0077, (2S)-2-[[2-[(4S)-4-(Difluoromethyl)-2-oxo-3-oxazolidinyl]-5,6-dihydroimidazo[1,2-d][1,4]benzoxazepin-9-yl]amino]propanamide]
inhibition of PI3K-α [7]: potent and selective inhibitor | less potent biochemical inhibition of other Class I PI3Ks (selectivity) [8]: > 300 fold | potency in cells bearing mutant p110a over cells bearing wild-type p110a [9]: increased potency | apoptosis [10]: induces apoptosis | proliferation [10]: inhibits proliferation | degradation of mutant p110a (mutant p110a): specifically degrades mutant p110a | tumor growth [11]: inhibits tumor growth | downstream PI3K pathway markers pAkt, pPRAS40, pS6RP (pAkt, pPRAS40, pS6RP): reduces downstream PI3K pathway markers | patients achieving PRs [12, 14]: 5 patients | patients achieving PRs, percentage [12, 14]: 25% | patients achieving clinical benefit [12, 15]: 9 patients | patients achieving clinical benefit, percentage [12, 15]: 45% | anti-proliferative effect / relative viability [6]: did not achieve the same anti-proliferative activity as the combination of the agents

SMILES: C[C@]12CC[C@@H]3c4ccc(O)cc4C[C@@H](CCCCCCCCC[S+]([O-])CCCC(F)(F)C(F)(F)F)[C@H]3[C@@H]1CC[C@@H]2O (stereo partly shown) [fulvestrant]
efficacy in xenograft models [13]: less efficacious than GDC-9545 | clinical benefit compared with anastrozole (frontline patients): benefit over anastrozole
